Measured values: ChEMBL document CHEMBL3045851, “Design, synthesis, and in vitro antimicrobial activities of novel azetidinyl-3-quinazolin-4-one hybrids” (2012)
Values after ≈ are worked out from the molar mass of the structure shown.

What was measured:
Format in all cases: functional
Aspergillus niger = test: Antifungal activity against Aspergillus niger MTCC 282 by broth microdilution method
Aspergillus clavatus = test: Antifungal activity against Aspergillus clavatus MTCC 1323 by broth microdilution method
Candida albicans = test: Antifungal activity against Candida albicans MTCC 227 by broth microdilution method
Pseudomonas aeruginosa = test: Antibacterial activity against Pseudomonas aeruginosa MTCC 1688 after overnight incubation by broth dilution method
Klebsiella pneumoniae = test: Antibacterial activity against Klebsiella pneumoniae MTCC 109 after overnight incubation by broth dilution method
[1] = tested on: Mycobacterium tuberculosis; test: Growth inhibition of Mycobacterium tuberculosis H37Rv MTCC 200 at 100 ug/ml after 28 days by Lowenstein-Jensen method; details: H37Rv MTCC 200, 672 h, read-out: GI
Escherichia coli = test: Antibacterial activity against Escherichia coli MTCC 443 after overnight incubation by broth dilution method
Streptococcus pyogenes = test: Antibacterial activity against Streptococcus pyogenes MTCC 442 after overnight incubation by broth dilution method
Staphylococcus aureus = test: Antibacterial activity against Staphylococcus aureus MTCC 96 after overnight incubation by broth dilution method
Salmonella typhimurium = test: Antibacterial activity against Salmonella enterica subsp. enterica serovar Typhimurium MTCC 98 after overnight incubation by broth dilution method
Bacillus subtilis = test: Antibacterial activity against Bacillus subtilis MTCC 441 after overnight incubation by broth dilution method
[2] = tested on: Mycobacterium tuberculosis; test: Growth inhibition of Mycobacterium tuberculosis H37Rv MTCC 200 at 500 ug/ml after 28 days by Lowenstein-Jensen method; details: H37Rv MTCC 200, 672 h, read-out: GI
[3] = tested on: Mycobacterium tuberculosis; test: Growth inhibition of Mycobacterium tuberculosis H37Rv MTCC 200 at 270 ug/ml after 28 days by Lowenstein-Jensen method; details: H37Rv MTCC 200, 672 h, read-out: GI
[4] = tested on: Mycobacterium tuberculosis; test: Growth inhibition of Mycobacterium tuberculosis H37Rv MTCC 200 at 250 ug/ml after 28 days by Lowenstein-Jensen method; details: H37Rv MTCC 200, 672 h, read-out: GI
[5] = tested on: Mycobacterium tuberculosis; test: Growth inhibition of Mycobacterium tuberculosis H37Rv MTCC 200 at 40 ug/ml after 28 days by Lowenstein-Jensen method
[6] = tested on: Mycobacterium tuberculosis; test: Growth inhibition of Mycobacterium tuberculosis H37Rv MTCC 200 at 0.2 ug/ml after 28 days by Lowenstein-Jensen method; details: H37Rv MTCC 200, 672 h, read-out: GI
[7] = tested on: Mycobacterium tuberculosis; test: Growth inhibition of Mycobacterium tuberculosis H37Rv MTCC 200 at 62.5 ug/ml after 28 days by Lowenstein-Jensen method; details: H37Rv MTCC 200, 672 h, read-out: GI
[8] = tested on: Mycobacterium tuberculosis; test: Growth inhibition of Mycobacterium tuberculosis H37Rv MTCC 200 at 50 ug/ml after 28 days by Lowenstein-Jensen method; details: H37Rv MTCC 200, 672 h, read-out: GI
[9] = tested on: Mycobacterium tuberculosis; test: Growth inhibition of Mycobacterium tuberculosis H37Rv MTCC 200 at 259 ug/ml after 28 days by Lowenstein-Jensen method; details: H37Rv MTCC 200, 672 h, read-out: GI

Compound	MIC99 (Aspergillus niger) [µg/mL]	MIC99 (Aspergillus clavatus) [µg/mL]	MIC99 (Candida albicans) [µg/mL]	MIC99 (Pseudomonas aeruginosa) [µg/mL]	MIC99 (Klebsiella pneumoniae) [µg/mL]	inhibition of growth at 100 µg/mL [1] [%]	MIC99 (Escherichia coli) [µg/mL]	MIC99 (Streptococcus pyogenes) [µg/mL]	MIC99 (Staphylococcus aureus) [µg/mL]	MIC99 (Salmonella typhimurium) [µg/mL]	MIC99 (Bacillus subtilis) [µg/mL]	inhibition of growth at 500 µg/mL [2] [%]	inhibition of growth at 270 µg/mL [3] [%]	inhibition of growth at 250 µg/mL [4] [%]	inhibition of growth at 40 µg/mL ([5]; H37Rv MTCC 200, 672 h, read-out: GI) [%]	inhibition of growth at 0.2 µg/mL [6] [%]	inhibition of growth at 62.5 µg/mL [7] [%]	inhibition of growth at 50 µg/mL [8] [%]	growth inhibition (GI) [5] [%]	inhibition of growth at 259 µg/mL [9] [%]
NYSTATIN	100	100	100																	
O=C(Nn1c(CNN2C(=O)C(Cl)C2c2ccc(Br)cc2)nc2ccccc2c1=O)c1ccncc1 (stereo unspecified)	1000 (≈ 1810 µM)	500 (≈ 903 µM)	500 (≈ 903 µM)	200 (≈ 361 µM)	500 (≈ 903 µM)	97	62.5 (≈ 113 µM)	200 (≈ 361 µM)	200 (≈ 361 µM)	100 (≈ 181 µM)	200 (≈ 361 µM)									
O=C(Nn1c(CNN2C(=O)C(Cl)C2c2ccccc2)nc2ccccc2c1=O)c1ccncc1 (stereo unspecified)	500 (≈ 1050 µM)	500 (≈ 1050 µM)	1000 (≈ 2110 µM)	125 (≈ 263 µM)	200 (≈ 421 µM)		200 (≈ 421 µM)	250 (≈ 526 µM)	250 (≈ 526 µM)	200 (≈ 421 µM)	100 (≈ 211 µM)	98								
O=C(Nn1c(CNN2C(=O)C(Cl)C2c2cccc([N+](=O)[O-])c2)nc2ccccc2c1=O)c1ccncc1 (stereo unspecified)	> 1000	> 1000	1000 (≈ 1920 µM)	250 (≈ 481 µM)	500 (≈ 962 µM)		250 (≈ 481 µM)	500 (≈ 962 µM)	500 (≈ 962 µM)	250 (≈ 481 µM)	200 (≈ 385 µM)		97							
O=C(Nn1c(CNN2C(=O)C(Cl)C2c2ccc(O)cc2)nc2ccccc2c1=O)c1ccncc1 (stereo unspecified)	> 1000	> 1000	500 (≈ 1020 µM)	250 (≈ 509 µM)	250 (≈ 509 µM)		250 (≈ 509 µM)	250 (≈ 509 µM)	200 (≈ 407 µM)	250 (≈ 509 µM)	250 (≈ 509 µM)			97						
O=C(Nn1c(CNN2C(=O)C(Cl)C2c2ccccc2[N+](=O)[O-])nc2ccccc2c1=O)c1ccncc1 (stereo unspecified)	500 (≈ 962 µM)	500 (≈ 962 µM)	1000 (≈ 1920 µM)	200 (≈ 385 µM)	250 (≈ 481 µM)	99	100 (≈ 192 µM)	250 (≈ 481 µM)	200 (≈ 385 µM)	250 (≈ 481 µM)	250 (≈ 481 µM)									
O=C(Nn1c(CNN2C(=O)C(Cl)C2c2ccccc2Cl)nc2ccccc2c1=O)c1ccncc1 (stereo unspecified)	200 (≈ 393 µM)	250 (≈ 491 µM)	200 (≈ 393 µM)	250 (≈ 491 µM)	100 (≈ 196 µM)		250 (≈ 491 µM)	500 (≈ 982 µM)	500 (≈ 982 µM)	500 (≈ 982 µM)	500 (≈ 982 µM)	98								
O=C(Nn1c(CNN2C(=O)C(Cl)C2c2ccccc2O)nc2ccccc2c1=O)c1ccncc1 (stereo unspecified)	1000 (≈ 2040 µM)	1000 (≈ 2040 µM)	250 (≈ 509 µM)	125 (≈ 255 µM)	250 (≈ 509 µM)		100 (≈ 204 µM)	250 (≈ 509 µM)	250 (≈ 509 µM)	125 (≈ 255 µM)	250 (≈ 509 µM)			97						
CO[C@H]1/C=C/O[C@@]2(C)Oc3c(C)c(O)c4c(O)c(c(/C=N/N5CCN(C)CC5)c(O)c4c3C2=O)NC(=O)/C(C)=C\C=C\[C@H](C)[C@H](O)[C@@H](C)[C@@H](O)[C@@H](C)[C@H](OC(C)=O)[C@@H]1C [RIFAMPIN]															98					
CC1(C)S[C@@H]2[C@H](NC(=O)[C@H](N)c3ccccc3)C(=O)N2[C@H]1C(=O)O [AMPICILLIN]				100 (≈ 286 µM)	100 (≈ 286 µM)		100 (≈ 286 µM)	100 (≈ 286 µM)	250 (≈ 715 µM)	100 (≈ 286 µM)						99				
CCc1ccc(C2C(Cl)C(=O)N2NCc2nc3ccccc3c(=O)n2NC(=O)c2ccncc2)cc1 (stereo unspecified)	> 1000	> 1000	1000 (≈ 1990 µM)	500 (≈ 994 µM)	250 (≈ 497 µM)		200 (≈ 398 µM)	250 (≈ 497 µM)	200 (≈ 398 µM)	125 (≈ 249 µM)	100 (≈ 199 µM)	97								
O=C(O)c1cn(C2CC2)c2cc(N3CCNCC3)c(F)cc2c1=O [CIPROFLOXACIN]				25 (≈ 75.4 µM)	25 (≈ 75.4 µM)		25 (≈ 75.4 µM)	50 (≈ 151 µM)	50 (≈ 151 µM)	25 (≈ 75.4 µM)										
O=C(Nn1c(CNN2C(=O)C(Cl)C2c2ccc(Cl)cc2)nc2ccccc2c1=O)c1ccncc1 (stereo unspecified)	1000 (≈ 1960 µM)	1000 (≈ 1960 µM)	250 (≈ 491 µM)	100 (≈ 196 µM)	100 (≈ 196 µM)		50 (≈ 98.2 µM)	500 (≈ 982 µM)	500 (≈ 982 µM)	100 (≈ 196 µM)	250 (≈ 491 µM)						99			
CCn1cc(C(=O)O)c(=O)c2cc(F)c(N3CCNCC3)cc21 [NORFLOXACIN]				10 (≈ 31.3 µM)	10 (≈ 31.3 µM)		10 (≈ 31.3 µM)	10 (≈ 31.3 µM)	10 (≈ 31.3 µM)	10 (≈ 31.3 µM)										
O=C(N[C@H](CO)[C@H](O)c1ccc([N+](=O)[O-])cc1)C(Cl)Cl [CHLORAMPHENICOL]				50 (≈ 155 µM)	50 (≈ 155 µM)		50 (≈ 155 µM)	50 (≈ 155 µM)	50 (≈ 155 µM)	50 (≈ 155 µM)										
NNC(=O)c1ccncc1 [ISONIAZID]																99				
O=C(Nn1c(CNN2C(=O)C(Cl)C2c2ccc([N+](=O)[O-])cc2)nc2ccccc2c1=O)c1ccncc1 (stereo unspecified)	> 1000	> 1000	500 (≈ 962 µM)	150 (≈ 289 µM)	200 (≈ 385 µM)		150 (≈ 289 µM)	125 (≈ 240 µM)	100 (≈ 192 µM)	200 (≈ 385 µM)	100 (≈ 192 µM)							99		
GENTAMICIN				1	0.05		0.05	0.5	0.25	1									98	
COc1ccc(C2C(Cl)C(=O)N2NCc2nc3ccccc3c(=O)n2NC(=O)c2ccncc2)cc1 (stereo unspecified)	250 (≈ 495 µM)	200 (≈ 396 µM)	200 (≈ 396 µM)	500 (≈ 990 µM)	62.5 (≈ 124 µM)		500 (≈ 990 µM)	200 (≈ 396 µM)	125 (≈ 248 µM)	500 (≈ 990 µM)	250 (≈ 495 µM)									98
COC1=CC(=O)C[C@@H](C)[C@]12Oc1c(Cl)c(OC)cc(OC)c1C2=O [GRISEOFULVIN]	100 (≈ 283 µM)	100 (≈ 283 µM)	500 (≈ 1420 µM)																	
